According to patent US11137686B2, “Material for forming underlayer film for lithography, composition for forming underlayer film for lithography, underlayer film for lithography and production method thereof, and resist pattern forming method” (Mitsubishi Gas Chemical Company, Inc., priority 2015, dated 2021):

How the values were obtained:
[1] = Thermal weight loss temperature (thermogravimetric measurement, TG); format: physicochemical; settings: heated to 500° C. at 10° C./min, nitrogen stream
Procedure: (Thermal Weight Loss Temperature)
An “EXSTAR 6000 […] apparatus” manufactured by SII NanoTechnology Inc. was used, and about 5 mg of a sample was placed in an unsealed aluminum container and heated to 500° C. at a rate of temperature rise of 10° C./min in a nitrogen gas (30 mL/min) stream. The 10% thermal weight loss temperature was here measured.

[2] = Solubility in PGME and PGMEA at 23° C.; format: physicochemical; settings: for solubility in PGME: 1-methoxy-2-propanol (PGME); for solubility in PGMEA: propylene glycol monomethyl ether acetate (PGMEA)
Procedure: The amount of each compound dissolved in 1-methoxy-2-propanol (PGME) and propylene glycol monomethyl ether acetate (PGMEA) was measured at 23° C., and the results were evaluated with respect to the solubility according to the following criteria.
Evaluation A: 20% by mass or more
Evaluation B: 10% by mass or more and less than 20% by mass
Evaluation C: less than 10% by mass

| Compound | 10% thermal weight loss temperature [1] [°C] | solubility in PGME [2] [% by mass] | solubility in PGME, Evaluation [2] | solubility in PGMEA, Evaluation [2] | solubility in PGMEA [2] [% by mass] |
| --- | --- | --- | --- | --- | --- |
| Oc1ccc2c3c(ccc2c1)Oc1ccc2cc(O)ccc2c1C3c1ccc(I)cc1 [A-2] | ≥ 400 | ≥ 20 | A (Evaluation A: 20% by mass or more) | B (Evaluation B: 10% by mass or more and less than 20% by mass) |  |
| COc1cc(C2c3c(ccc4cc(O)ccc34)Oc3ccc4cc(O)ccc4c32)cc(I)c1O [A-3] | ≥ 400 | ≥ 20 | A (Evaluation A: 20% by mass or more) | A (Evaluation A: 20% by mass or more) | ≥ 20 |
| Oc1ccc2c3c(ccc2c1)Oc1ccc2cc(O)ccc2c1C3c1ccc(I)o1 [A-4] | ≥ 400 | ≥ 20 | A (Evaluation A: 20% by mass or more) | A (Evaluation A: 20% by mass or more) | ≥ 20 |
| Oc1ccc2ccc3c(c2c1)C(c1ccc(I)cc1)c1c(ccc2ccc(O)cc12)O3 [B-2] | ≥ 400 | ≥ 20 | A (Evaluation A: 20% by mass or more) | A (Evaluation A: 20% by mass or more) | ≥ 20 |
| COc1cc(C2c3c(ccc4ccc(O)cc34)Oc3ccc4ccc(O)cc4c32)cc(I)c1O [B-3] | ≥ 400 | ≥ 20 | A (Evaluation A: 20% by mass or more) | A (Evaluation A: 20% by mass or more) | ≥ 20 |
| Oc1ccc2ccc3c(c2c1)C(c1ccc(I)o1)c1c(ccc2ccc(O)cc12)O3 [B-4] | ≥ 400 | ≥ 20 | A (Evaluation A: 20% by mass or more) | A (Evaluation A: 20% by mass or more) | ≥ 20 |
